The subject of the assay is human macrophage cell-line MonoMac-6 (MM6). Nature of the assay: PMA-induced release of tumor necrosis factor (TNF) from MonoMac-6 cells, Human TNF-α ELISA. Format: cell-based. Particulars: n=2; for TNF concentration as % of the untreated PMA-stimulated control MM6 cells: 48 hours, PMA 10 ng/mL five hours, mean; for mean TNF concentration after PMA stimulation: 48 hours treatment, then PMA 10 ng/mL five hours, untreated control 75.3 pg/mL. The procedure:
Cells from the human macrophage cell-line MonoMac-6 (MM6) (Ziegler-Heitbrock et al, Int. J. Cancer, 41, 456 (1988)) were cultured (37° C./5% CO2) in RPMI-1640 medium supplemented with 1 mM sodium pyruvate, 1× nonessential amino acids, 10 μg/mL insulin, 1 mM oxalacetic acid, 100 units/mL penicillin, 100 μg/mL streptomycin and 10% (v/v) fetal bovine serum. At the start of the experiment, MM6 cells were seeded in 96-well plates at a density of 1×10^5 cells/mL (200 μL per well). The MM6 cells were treated (incubation conditions as above) with indicated final concentrations of the test drugs for 48 hours prior stimulation with phorbol-12-myristate-13-acetate (PMA; Sigma-Aldrich, Stockholm, Sweden) followed by measurement of PMA-induced release of tumor necrosis factor (TNF) (see below for details). To stimulate formation and release of TNF, the MM6 cells were incubated (37° C./5% CO2) for five hours (in RPMI-1640 with 10% fetal bovine serum with supplements as above) with PMA at a final concentration of 10 ng/mL. After spinning down the cells after the different MM6 incubations/stimulations (see above and below), the concentrations of TNF in the supernatants were quantitated using Human TNF-α ELISA Kit from Mabtech (Nacka, Sweden) according to instructions supplied by the manufacturer. Stock solutions of pemirolast (potassium salt; purchased from American Custom Chemicals Corporation, San Diego, USA) and losartan (potassium salt; purchased from AK Scientific, Inc., Mountain View, Calif., USA) were made in sterile saline. […] However, after five hours of PMA stimulation, the mean TNF concentration in the supernatants of untreated MM6 cells was 75.3 pg/mL (n=2).

Setting [1] is: 0.1 μM of each drug (alone or in combination).
The mark [2] stands for this setting: 1 μM of each drug (alone or in combination).
[3] abbreviates: 10 μM of each drug (alone or in combination).
[4] abbreviates: 100 μM of each drug (alone or in combination).

The record followed here is patent publication US20110092463A1, “COMBINATION FOR USE IN THE TREATMENT OF INFLAMMATORY DISORDERS” (priority 2008, published 2011).

Consider `Cc1cccn2c(=O)c(-c3nnn[nH]3)cnc12` [pemirolast], for which the “TNF concentration as % of the untreated PMA-stimulated control MM6 cells” value (from here on “TNF concentration as %”) by setting is: under setting [1], 88%; under setting [2], 85%; under setting [3], 72%; under setting [4], 96%. Besides, the “mean TNF concentration after PMA stimulation” value is, setting by setting: (0.1 μM test drug) 66.5 pg/mL; (1 μM test drug) 64.0 pg/mL; (10 μM test drug) 54.3 pg/mL; (100 μM test drug) 72.2 pg/mL.
As to `CCCCc1nc(Cl)c(CO)n1Cc1ccc(-c2ccccc2-c2nn[nH]n2)cc1` [losartan], the “TNF concentration as %” value under setting [1] came to 98%, the “TNF concentration as %” value under setting [2] stood at 90%, the “TNF concentration as %” value under setting [3] came out at 99% and the “TNF concentration as %” value under setting [4] stood at 119%. Also, the “mean TNF concentration after PMA stimulation” value reads like this: (0.1 μM test drug) 73.8 pg/mL; (1 μM test drug) 67.5 pg/mL; (10 μM test drug) 74.5 pg/mL; (100 μM test drug) 89.8 pg/mL.
